# US12491160B2, “Formulations of a farnesoid X receptor agonist” (ELI LILLY AND COMPANY, priority 2020, dated 2025)
# Experiments:
# FXR = target: T1, FXR (Homo sapiens, UniProt Q96RI1); details: published clinical studies, higher administered doses; cited from earlier work
# T1 sequence (Q96RI1 1-486): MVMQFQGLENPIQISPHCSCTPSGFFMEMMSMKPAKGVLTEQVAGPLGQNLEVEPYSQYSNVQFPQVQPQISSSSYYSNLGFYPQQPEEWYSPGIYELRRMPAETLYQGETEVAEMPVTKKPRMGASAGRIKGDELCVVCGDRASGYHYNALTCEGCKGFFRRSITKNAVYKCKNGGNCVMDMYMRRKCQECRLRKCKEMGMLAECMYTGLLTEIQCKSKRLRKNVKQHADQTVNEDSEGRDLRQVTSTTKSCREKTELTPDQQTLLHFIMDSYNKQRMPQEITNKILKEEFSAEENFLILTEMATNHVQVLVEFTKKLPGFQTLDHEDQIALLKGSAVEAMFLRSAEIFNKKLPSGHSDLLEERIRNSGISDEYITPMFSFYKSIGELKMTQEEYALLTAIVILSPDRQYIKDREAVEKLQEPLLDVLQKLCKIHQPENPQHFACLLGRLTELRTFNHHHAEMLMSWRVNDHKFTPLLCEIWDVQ
# hFXR = target: T2, hFXR (Homo sapiens, UniProt Q96RI1); assay: In Vitro FXR Assay (TK); type: cell-based; details: transfected CV-1 cells (hFXR, hRXR, TK-ECRE-luc), 18 hrs incubation, luminescence
# T2 construct: expressed in transfected cells; host or cells: CV-1 cells
# T2 sequence (Q96RI1 1-486): T1 sequence (Q96RI1 1-486)
# T2 sequence (P19793 1-462 partner): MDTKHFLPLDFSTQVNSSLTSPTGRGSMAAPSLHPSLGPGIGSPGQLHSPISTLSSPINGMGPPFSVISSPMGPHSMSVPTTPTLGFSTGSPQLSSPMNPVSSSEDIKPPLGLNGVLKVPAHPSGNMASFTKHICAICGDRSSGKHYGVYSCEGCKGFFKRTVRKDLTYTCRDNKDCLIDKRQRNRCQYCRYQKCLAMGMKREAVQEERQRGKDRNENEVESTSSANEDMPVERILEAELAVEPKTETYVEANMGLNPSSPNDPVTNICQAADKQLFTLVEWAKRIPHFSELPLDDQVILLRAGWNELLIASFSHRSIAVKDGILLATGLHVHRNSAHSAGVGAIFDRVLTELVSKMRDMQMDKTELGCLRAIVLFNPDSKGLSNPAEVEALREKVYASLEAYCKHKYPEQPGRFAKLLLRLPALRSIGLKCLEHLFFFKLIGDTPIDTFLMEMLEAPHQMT
# Procedure: CV-1 cells were seeded at a density of 2,000,000 cells in a T175 flask with DMEM+10% charcoal double-stripped FBS and incubated at 37° C. in 5% CO2 for 18 h (O/N).
# After 18 h of incubation, the medium in the T175 flask was changed with fresh DMEM+10% charcoal super-stripped serum. In a polypropylene tube, 2500 μL OptiMEM (Life Technologies, Cat #31985-062) was combined with expression plasmids for hFXR, hRXR, TK-ECRE-luc and pCMX-YFP. The tube was then briefly vortexed and incubated at room temperature for 5 minutes. Transfection reagent (X-tremeGENE HP from Roche, Cat #06 366 236 001) was added to the OptiMEM/plasmid mixture vortexed and incubated at room temperature for 20 minutes. Following incubation, the transfection reagent/DNA mixture complex was added to cells in the T175 flask and the cells were incubated at 37° C. in 5% CO2 for 18 h (O/N).
# Compound 1 was serially diluted in DMSO and added to transfected CV-1 cells. The cells were then incubated for 18 hrs. The next day cells were lysed and examined for luminescence. Compound 1 TK hFXR: EC50≤0.01 μM.
EC50 (hFXR) [µM],SMILES,adverse side effects (FXR)
–,"CC[C@H]1[C@@H](O)[C@@H]2[C@H](CC[C@]3(C)[C@@H]([C@H](C)CCC(=O)O)CC[C@@H]23)[C@@]2(C)CC[C@@H](O)C[C@@H]12 [OCA, Obeticholic acid]","adverse side effects at higher administered doses, such as pruritis, increased LDL cholesterol and liver toxicity"
≤ 0.01,"COc1ccc(C23CCC(CN(c4cc(-c5cnn(C(C)(C)C)c5)ccn4)C(=O)[C@H]4CC[C@H](OC(=O)N5CC(O)C5)CC4)(CC2)CC3)cc1C [Compound 1, 4-((4-(1-(tert-butyl)-1H-pyrazol-4-yl)pyridin-2-yl)((4-(4-methoxy-3-methylphenyl)bicyclo[2.2.2]octan-1-yl)methyl)carbamoyl)cyclohexyl 3-hydroxyazetidine-trans-1-carboxylate]",–
